Data on six molecules can be found in patent publication US11440923B2, “Substituted macrocyclic indole derivatives” (Bayer Aktiengesellschaft, priority 2017, dated 2022).

Structures can show the parent of a compound that is named as a salt. Where two headings read alike, the source gives them in different places.

Experiment [1] has as its target T1, MCL-1 (Homo sapiens (Human), UniProt Q07820, K194A/K197A/R201A). Put plainly: Protein-protein interaction assay MCL-1/Noxa BH3 peptide (MCL-1 assay, TR-FRET). The experiment is classed as binding. The conditions noted are these: MCL-1 Assay IC50 (median). Summed up:
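Competition TR-FRET with MBP-MCL-1 (aa 173-321) at 1 nM final and biotinylated Noxa BH3 peptide, pH 7 Tris buffer. Compounds pre-incubated 10 min at 22° C., then 1 h at 22° C. and overnight at 4° C. 665/620 nm ratio normalized to DMSO; IC50 from 4-parameter fit.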
(TR-FRET usually uses a lanthanide donor and a delayed reading to cut background.)
Target sequence in this assay (Q07820 whole entry, looked up, stated change not applied, the tested form may be a part): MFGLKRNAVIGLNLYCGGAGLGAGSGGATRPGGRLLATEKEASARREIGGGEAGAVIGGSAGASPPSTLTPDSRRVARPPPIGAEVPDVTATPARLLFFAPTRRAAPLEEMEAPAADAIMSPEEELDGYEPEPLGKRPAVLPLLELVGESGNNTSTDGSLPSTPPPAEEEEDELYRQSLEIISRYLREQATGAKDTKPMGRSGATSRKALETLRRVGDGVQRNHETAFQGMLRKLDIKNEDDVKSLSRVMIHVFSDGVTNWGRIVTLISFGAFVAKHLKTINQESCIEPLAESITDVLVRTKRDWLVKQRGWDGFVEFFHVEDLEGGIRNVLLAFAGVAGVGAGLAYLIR

Experiment [2] deals with A2780 cells. The experiment in a line: Antiproliferation assay A2780 (Assay 7). Format: cell-based. The procedure: Assessment of the Anti-Proliferative Effect of Compounds in Different Cell Lines
The impact of compounds on the proliferation of different cell lines was assessed using the CellTiter-Glo® Luminescent Cell Viability reagent from Promega (G7573).
In parallel, cells were plated in a reference (day 0) plate for time zero determination. Cells were incubated in a humidified incubator at 37° C. overnight.
Rim wells were excluded. The cells were incubated for 72 h hours in a humidified incubator at 37° C. The day 0 plate was measured by adding 30 μL/well of CTG solution (CellTiter-Glo® Luminescent Cell Viability reagent, Promega G7573) to time zero wells in the reference plate followed by a 10 minutes incubation and luminescence reading at 0.1 ms. using the PHERAstar FS microplate reader (BMG Labtech).
After 72 h incubation, the treated plates were measured in the same way as the day 0 plate mentioned above. The Bella DRC Master Sheet was used to calculate IC50s, with CI=day 0 values and C0=DMSO control values.

For experiment [3], the system named is MV-4-11 cells. Put plainly: Antiproliferation assay MV-4-11 (Assay 7). The experiment is classed as cell-based. The conditions noted are these: CellTiter-Glo, read-out: Antiproli MV-4-11 IC50 median. The essentials: (§1)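 Anti-proliferative effect was measured by CellTiter-Glo ATP luminescence after 72 h compound exposure at 37° C, following overnight plating. IC50s were derived using a parallel time-zero plate and DMSO-treated controls as reference points.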
Background: Cellular ATP, detected with luciferase, serves as a proxy for viable cell number.

In experiment [4] the target is T1, MCL-1. Put plainly: Protein-compound interaction assay (SPR assay, Assay 9). Format: binding. The conditions noted are these: for Kd: KD (geometric mean); for koff: read-out: koff (geometric mean), SPR, 25° C.; for kon: read-out: kon (geometric mean), SPR, 25° C. An excerpt: Assay 9 Protein-Compound Interaction Assay (SPR Assay)
The ability of the compounds described in this invention to bind to MCL-1 may be determined using surface plasmon resonance (SPR). This allows for the quantification of binding in terms of the equilibrium dissociation constant (KD [M]), as well as association and dissociation rate constants (kon [1/Ms] and koff [1/s], respectively). The measurements may be performed using Biacore® T200 or Biacore® S200 instruments (GE Healthcare).
Briefly, carboxymethylated dextran biosensor chips (Series S Sensor Chip CMS, GE Healthcare) were activated with 1-ethyl-3-(3-dimethylaminopropyl)-carbodiimide hydrochloride (EDC) and N-hydroxysuccinimide (NHS) according to the supplier's instructions. MBP-MCL-1 was diluted in 1×PBS-P+ (GE Healthcare) and injected on the activated chip surface. Subsequently, a solution of 1 M ethanolamine-HCl (GE Healthcare) was injected to block unreacted groups, resulting in approximately 400-2500 response units (RU) of immobilized protein. A reference surface was generated by treatment with NHS-EDC and ethanolamine-HCl. […] Compounds were injected for 60 s followed by a dissociation time of up to 1000 s.
The double-referenced sensorgrams were fit to a simple reversible Langmuir 1:1 reaction mechanism as implemented in the Biacore® T200 and S200 evaluation software (T200 evaluation software version 2.0 and S200 evaluation software version 1.0, GE Healthcare).
Target sequence in this assay (Q07820 whole entry K194A/K197A/R201A, looked up, the tested form may be a part): as the sequence (Q07820 whole entry, looked up, stated change not applied, the tested form may be a part) above, with K194A, K197A, R201A counted along it

Experiment [5] concerns SNU-389 cells. Put plainly: Antiproliferation assay SNU-389 (Assay 7). Format: cell-based. The conditions noted are these: 72 h, CellTiter-Glo; read-out: Antiproli SNU-389 IC50. Summed up:
as §1

For experiment [6], the system named is SNU-16 cells. The experiment in a line: Antiproliferation assay SNU-16 (Assay 7). The experiment is classed as cell-based. The conditions noted are these: Homo sapiens, SNU-16; 72 h, CellTiter-Glo; read-out: Antiproli SNU-16 IC50 median. The essentials: as §1
Experiment [7] concerns A-431 cells. The experiment in a line: Antiproliferation assay A-431 (Assay 7). As to conditions: Homo sapiens, A-431; 72 h, CellTiter-Glo; read-out: Antiproli A-431 IC50 median. Format: cell-based. Summed up:
as §1

For experiment [8], the system named is PA-1 cells. Put plainly: Antiproliferation assay PA-1 (Assay 7). Format: cell-based. The conditions noted are these: Homo sapiens, PA-1; 72 h, CellTiter-Glo; read-out: Antiproli PA-1 IC50 median. Summed up:
as §1

In experiment [9] the test system is DMS-114 cells. Put plainly: Antiproliferation assay DMS-114 (Assay 7). The experiment is classed as cell-based. The conditions noted are these: Homo sapiens; DMS-114 cells, 72 h, CellTiter-Glo; read-out: Antiproli DM-S114 IC50 median. Summed up:
as §1

Where [10] appears, read: Homo sapiens, A2780, 72 h, CellTiter-Glo, read-out: Antiproli A2780 IC50 median.
[11] abbreviates: Homo sapiens, A2780, 72 h, read-out: Antiproli A2780 IC50 median, 72 h, CellTiter-Glo.

Broadly, the IC50 is the point on the concentration scale where inhibition reaches its midpoint. The term Kd denotes the free concentration of one partner at which half of the binding sites on the other are occupied at equilibrium, for simple one-to-one binding. Low readings indicate higher affinity, high ones lower affinity. By koff is commonly meant the rate constant with which the complex falls apart. Broadly, the kon is a measure of how fast the partners come together.

Turning to `Cc1c2c(nn1C)C(C)OCCCCn1c(C(=O)O)c(CCCOc3cccc4ccccc34)c3cccc-2c31` (racemic) [Example 1, (rac)-2,3,15-trimethyl-7-[3-(naphthalen-1-yloxy)propyl]-2,10,11,12,13,15-hexahydropyrazolo[4′,3′:9,10][1,6]oxazacycloundecino[8,7,6-hi]indole-8-carboxylic Acid (Mixture of Stereoisomers)], the half-inhibitory concentration (IC50) in [1] came to 2.2 nM; in [2] (setting [10]), 19500 nM.

On to `CCc1c2c(nn1C)C(CCN1CCOCC1)OCCCCn1c(C(=O)O)c(CCCOc3cccc4ccccc34)c3ccc(F)c-2c31` (racemic) [Example 10, (rac)-3-ethyl-4-fluoro-2-methyl-15-[2-(morpholin-4-yl)ethyl]-7-[3-(naphthalen-1-yloxy)propyl]-2,10,11,12,13,15-hexahydropyrazolo[4′,3′:9,10][1,6]oxazacycloundecino[8,7,6-hi]indole-8-carboxylic Acid], for which the IC50 in [1] was 0.72 nM; in experiment [3] (Homo sapiens, MV4-11, 72 h), 110 nM; in [2] (setting [10]) it was 3430 nM. The same molecule had an equilibrium dissociation constant (Kd) in experiment [4] (SPR, 25° C.) of 1.1 nM. Further, in experiment [4], the dissociation rate constant (koff) was 0.01 s⁻¹. Besides, the on-rate (kon) in experiment [4] was 9e+06 M⁻¹ s⁻¹.

Regarding `CCc1c2c(nn1C)C(CCN1CCOCC1)OCCCCn1c(C(=O)O)c(CCCOc3cccc4ccccc34)c3ccc(F)c-2c31` (single isomer, unassigned; enantiomer 1) [Example 11, 3-ethyl-4-fluoro-2-methyl-15-[2-(morpholin-4-yl)ethyl]-7-{3-[(naphthalen-1-yl)oxy]propyl}-2,10,11,12,13,15-hexahydropyrazolo[4′,3′:9,10][1,6]oxazacycloundecino[8,7,6-hi]indole-8-carboxylic Acid—N-ethylethanamine Salt (Enantiomer 1)], in experiment [3] (72 h), the half-inhibitory concentration (IC50) was determined as 144 nM. Moreover, the IC50 in experiment [2] (setting [11]) amounted to 779 nM. In addition, in experiment [4] (SPR, 25° C.), binding was characterised by a dissociation constant (Kd) of 0.61 nM and the “kon (geometric mean)” value was 6.2 E6 1/M 1/s. Further, the off-rate constant (koff) in [4] amounted to 0.0038 s⁻¹.

For `CCc1c2c(nn1C)C(CCN1CCOCC1)OCCCCn1c(C(=O)O)c(CCCOc3cccc4cc(F)ccc34)c3ccc(F)c-2c31` (single isomer, unassigned; enantiomer 1) [Example 50, (+)-3-ethyl-4-fluoro-7-{3-[(6-fluoronaphthalen-1-yl)oxy]propyl}-2-methyl-15-[2-(morpholin-4-yl)ethyl]-2,10,11,12,13,15-hexahydropyrazolo[4′,3′:9,10][1,6]oxazacycloundecino[8,7,6-hi]indole-8-carboxylic Acid (Enantiomer 1)], the IC50 was 0.48 nM in experiment [1]; 455 nM in experiment [5]; 321 nM in [6]; 336 nM in experiment [7]; 222 nM in experiment [8]; 153 nM in experiment [9]. Binding in [4] (SPR, 25° C.) was characterised by a dissociation constant (Kd) of 0.36 nM. The koff in experiment [4] turned out to be 0.009 s⁻¹. The kon in experiment [4] was 2.5e+07 M⁻¹ s⁻¹.

In the case of `Cc1c2c(nn1C)C(C)OCCCCn1c(C(=O)O)c(CCCOc3cccc4ccccc34)c3cccc-2c31` (single isomer, unassigned; stereoisomer 1) [Example 2, 2,3,15-trimethyl-7-[3-(naphthalen-1-yloxy)propyl]-2,10,11,12,13,15-hexahydropyrazolo[4′,3′:9,10][1,6]oxazacycloundecino[8,7,6-hi]indole-8-carboxylic Acid Trifluoroacetic Acid Salt (Stereoisomer 1)], the IC50 turned out to be 1.2 nM in experiment [1] and 22800 nM in experiment [2] (read-out: Antiproli A2780 IC50 median, 72 h, CellTiter-Glo, listed as 02). In addition, the Kd in experiment [4] (SPR, 25° C.) was found to be 11 nM. The koff in experiment [4] came to 0.067 s⁻¹. Further, in experiment [4], the kon came to 5.9e+06 M⁻¹ s⁻¹.

In the case of `Cc1c2c(nn1C)C(C)OCCCCn1c(C(=O)O)c(CCCOc3cccc4ccccc34)c3cccc-2c31` (single isomer, unassigned; stereoisomer 2) [Example 3, 2,3,15-trimethyl-7-[3-(naphthalen-1-yloxy)propyl]-2,10,11,12,13,15-hexahydropyrazolo[4′,3′:9,10][1,6]oxazacycloundecino[8,7,6-hi]indole-8-carboxylic Acid Trifluoroacetic Acid Salt (Stereoisomer 2)], the values for the 50% inhibitory concentration (IC50) in experiment [1] and in experiment [2] (setting [11]) were 22 nM and 29900 nM, respectively.
